The values below are quoted from earlier work in patent US20250282901A1, “POLYMERIC CHELATORS CROSS-LINKED WITH HIGH MOLECULAR WEIGHT CROSS-LINKERS” (THE UNIVERSITY OF KANSAS, priority 2021, published 2025).

With `O=C(N[C@H]1COC(=O)[C@@H](NC(=O)c2cccc(O)c2O)COC(=O)[C@@H](NC(=O)c2cccc(O)c2O)COC1=O)c1cccc(O)c1O` [Enterobactin], the “relative iron binding constant” value (Fe(III)) was 35.5. Besides, under “natural iron chelator”, the “Log K” value is 52.
